Reference: US20150125915A1, “Method for Producing Lactic Acid” (Kao Corporation, priority 2012, published 2015)

Assays:
[1] = tested on: fungus of the genus Rhizopus; assay: Evaluation of ability to produce lactic acid by repetitive use of fungus body; format: cell-based; settings: 0.5% (w/v) at germination, relative to control without surfactant in the first repetition
Experimental: Mycelia of a fungus of the genus Rhizopus were prepared in a medium non-supplemented with or containing 0.5% (w/v) (final concentration) of the surfactant sorbitan monolaurate (Rheodol(R) SP-L10) by the same procedures as in Test Example 4(2) and then cultured by the same procedures as in Test Example 4(3). The obtained fungus bodies were recovered by the same procedures as in Test Example 5(4). Subsequently, 25 g of the wet fungus bodies was cultured for 4 hours in an inorganic culture medium for lactic acid production evaluation by the same procedures as in Test Example 5. The production rate of lactic acid was determined. The same procedures of fungus body recovery and culture were repeated, and the production rate of lactic acid was determined at each run (the number of repetitions: 3). The production rate of lactic acid at each run was calculated as a relative value to the production rate of lactic acid under the control conditions (in the absence of the surfactant) in the first repetition. The concentration of lactic acid (unit: g of lactic acid/L of medium) in the supernatant sample of each culture medium was measured according to Reference Example 1 and divided by a time (unit: hr) required for change in lactic acid concentration to calculate the production rate of lactic acid per unit time (unit: g of lactic acid/L/hr). In addition, a relative value to the production rate of lactic acid under control conditions in each Production Example was determined.

[2] = tested on: Rhizopus oryzae NBRC 5384 (=JCM14625); assay: Evaluation of ability to produce lactic acid-2, strain NBRC 5384; format: cell-based; settings: 0.5% (w/v) at spore germination, control of the strain without surfactant = 100
Experimental: (1) Spore suspensions were prepared in the same way as in Production Example 1 using Rhizopus oryzae NBRC 4707, NBRC 4785, NBRC 5384 (=JCM14625), and NBRC 5418 strains obtained from a culture collection NBRC.
(2) Mycelia were prepared from the spores of each strain under the same conditions as in Production Example 2 involving stirring at 100 rpm using 60 mL of a PDB medium non-supplemented or supplemented with 0.5% (w/v) (final concentration) of the surfactant sorbitan monolaurate (Rheodol(R) SP-L10, manufactured by Kao Corp.).
(3) The total amount of the fungus bodies obtained in (2) was inoculated to 100 mL of an inorganic culture medium under the same conditions as in Production Example 3 to grow the mycelia. […]
30 g of the prepared wet fungus bodies of each strain of the genus Rhizopus was inoculated to 100 mL of an inorganic culture medium for lactic acid production evaluation (composition: 12.5% glucose, 0.1% ammonium sulfate, 0.06% potassium dihydrogen phosphate, 0.025% magnesium sulfate heptahydrate, 0.009% zinc sulfate heptahydrate, and 6.25% calcium carbonate; all the concentrations mean % (w/v)) applied to a 500-mL Erlenmeyer flask, and then cultured at 33.5° C. with stirring at 170 rpm. The production rate of lactic acid was determined by the same procedures as in Test Example 2. […]

Q: Which “Production rate of lactic acid (relative value)” value ([1]; repetition 1) does the source give for Sorbitan monolaurate here?
A: 173 relative value

Q: What about the “Production rate of lactic acid (relative value)” value ([1]; repetition 2) of the same substance?
A: 170 relative value

Q: And the “Production rate of lactic acid (relative value)” value ([1]; repetition 3)?
A: 167 relative value

Q: What about the “Production rate of lactic acid (relative value)” value [2] of the same substance?
A: 130 relative value
